The assay addresses Gamma-aminobutyric acid receptor subunit alpha-5 (Rattus norvegicus, UniProt P19969).

Ki data for one molecule are collected here from BindingDB's records for doi:10.1074/jbc.274.19.13370 (SynthÉLabo, 1999).

SMILES strings stand for the structures. “And” between values parts separate entries of the source, which are not always exact repeats. Equal values may be shown once.

Sequence of Gamma-aminobutyric acid receptor subunit alpha-5 (P19969 whole entry): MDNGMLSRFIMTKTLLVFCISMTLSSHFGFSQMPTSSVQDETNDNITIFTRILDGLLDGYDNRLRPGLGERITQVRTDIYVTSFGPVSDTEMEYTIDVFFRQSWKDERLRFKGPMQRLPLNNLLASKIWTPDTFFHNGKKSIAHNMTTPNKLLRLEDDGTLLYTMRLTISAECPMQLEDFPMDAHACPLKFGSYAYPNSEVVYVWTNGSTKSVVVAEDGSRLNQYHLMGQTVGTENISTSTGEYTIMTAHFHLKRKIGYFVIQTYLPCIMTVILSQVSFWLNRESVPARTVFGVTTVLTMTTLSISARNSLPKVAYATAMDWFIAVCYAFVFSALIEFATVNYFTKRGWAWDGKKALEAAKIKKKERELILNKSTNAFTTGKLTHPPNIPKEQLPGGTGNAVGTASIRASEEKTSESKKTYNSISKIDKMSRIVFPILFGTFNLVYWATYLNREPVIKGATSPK

For the molecule `Cc1nnc2ccc(-c3cccc(C(F)(F)F)c3)nn12`, the Ki is 0.333 µM and 0.127 µM and 0.157 µM and 0.447 µM.

By Ki is commonly meant a dissociation constant, usually derived from enzyme kinetics or from competition with a known ligand.
